Experimental data from PMC7988488 (The Journal of Biological Chemistry, 2021).
Like-named read-outs stand apart in the source and are kept apart here.

Tests used:
[1] = test system: capsaicin-induced nociceptive behavior; assay: Capsaicin-induced nociception; type: in vivo, mice; details: 100 μg/kg i.m., 30 min before intraplantar capsaicin 1 μg; 5-min observation
Procedure: On the day of testing, ICR male mice were treated by intramuscular injection with equal volume of saline, H4 (10 and 30 μg/kg i.m.), or a positive control in the form of the potent Nav1.7 antagonist PF-05198007 (100 μg/kg i.m.) ([35]). Thirty minutes following test article treatment, animals were subjected to intraplantar injection of 1 μg of capsaicin in a volume of 20 μl of 5% EtOH in saline into the right hind paw. Immediately after the capsaicin injection, the total time spent engaged in licking of the injected hind paw was manually recorded over a 5-min period. All dosing and scoring activities were conducted by experimenters who were fully blinded to treatment conditions.

[2] = test system: CFA-induced mechanical allodynia; set-up: species or system mice; details: mouse, in vivo
acute heat pain response = type: in vivo, mice
[3] = test system: formalin-induced spontaneous pain behaviors; type: in vivo, mice
hNav1.7 mutants = type: cell-based, human

With `Nc1[nH]ncc1-c1cc(Cl)ccc1Oc1cc(F)c(S(=O)(=O)Nc2cscn2)cc1Cl` [PF-05089771] the “capsaicin-elicited paw licking response (in words)” value [1] was “significantly blocked”.

In the case of `CN1CC[C@]23c4c5ccc(O)c4O[C@H]2[C@@H](O)C=C[C@H]3[C@H]1C5` [morphine], the “duration of anti-allodynic effect” value [2] is reported as 2 h, the “paw withdrawal threshold compared with saline (in words)” value [2] is reported as “significantly enhanced” and the hot plate latency (acute heat pain response; mouse, in vivo, SD) is reported as 17.0 ± 0.9 s. The “paw licking time, early phase” value ([3]; mouse, in vivo) was 110.3 ± 12.9 s and the “paw licking time, late phase” value ([3]; mouse, in vivo) was 86.7 ± 8.5 s.

With Hainantoxin-III [Compound 1] the “affinity for hNav1.7 mutants versus WT hNav1.7 (in words)” value (hNav1.7 mutants) was “did not change significantly”, the hot plate latency (acute heat pain response; 100 μg/kg i.p., 1 h after treatment, plate 55 °C, mean ± SD, n = 5 to 8) was 15.1 ± 0.9 s and the “paw licking time, early phase” value ([3]; 100 μg/kg i.m., 30 min before formalin, early phase 0-10 min, control 145.2 ± 6.9 s) was 68.1 ± 9.7 s. For the same compound, the “paw licking time, late phase” value ([3]; 100 μg/kg i.m., 30 min before formalin, late phase 15-35 min, control 224 ±16.7 s) was 71.0 ± 13.0 s.
